# Measured values reported in patent US6534524B1, “Indazole compounds and pharmaceutical compositions for inhibiting protein kinases, and methods for their use” (Agouron Pharmaceuticals, Inc., priority 1999, dated 2003).
# Tested on: human umbilical vein endothelial cells (HUVEC)
# Test: HUVEC proliferation assay (VEGF-stimulated, MTT);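 for % inhibition of the proliferation of HUVEC: relative to VEGF-stimulated control minus starvation-medium baseline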
# Type: cell-based
# Conditions: crude reaction mixtures; for % inhibition: Library III, HUVEC proliferation, nominal concentration of 0.5 nM
# [1] = Library II, Y=S, 0.5 mM (column head; text: nominal 0.5 nM)
# [2] = Library II, Y=S, 2 mM (column head; text: nominal 2 nM)
# [3] = Library I, Y = CO, nominal concentration of 10 nM
# [4] = Library I, Y = NH, nominal concentration of 10 nM
# [5] = Library I, Y = O, nominal concentration of 10 nM
compound,measurement,setting,value
O=C(NNc1ccccn1)c1ccccc1Sc1ccc2c(/C=C/c3ccccn3)n[nH]c2c1 [drawing 760],% inhibition of the proliferation of HUVEC,[1],32%
same,% inhibition of the proliferation of HUVEC,[2],92%
COC(CNC(=O)c1ccccc1Sc1ccc2c(/C=C/c3ccccn3)n[nH]c2c1)OC,% inhibition of the proliferation of HUVEC,[1],47%
same,% inhibition of the proliferation of HUVEC,[2],89%
O=C(NCCC1OCCO1)c1ccccc1Sc1ccc2c(/C=C/c3ccccn3)n[nH]c2c1,% inhibition of the proliferation of HUVEC,[1],38%
same,% inhibition of the proliferation of HUVEC,[2],68%
Cc1nnc(NC(=O)c2ccccc2Sc2ccc3c(/C=C/c4ccccn4)n[nH]c3c2)nc1C,% inhibition,,−20%
O=C(NCCCN(CCO)CCO)c1ccccc1Sc1ccc2c(/C=C/c3ccccn3)n[nH]c2c1,% inhibition of the proliferation of HUVEC,[1],4%
same,% inhibition of the proliferation of HUVEC,[2],4%
COc1ccc(Cl)cc1NC(=O)c1ccccc1Sc1ccc2c(/C=C/c3ccccn3)n[nH]c2c1,% inhibition,,−4%
CCN(CC)c1ccc(NC(=O)c2ccccc2Sc2ccc3c(/C=C/c4ccccn4)n[nH]c3c2)cc1,% inhibition,,−9%
CCOC(=O)CNC(=O)c1ccccc1Sc1ccc2c(/C=C/c3ccccn3)n[nH]c2c1,% inhibition,,−16%
O=C(Nc1cccc(F)c1)c1ccccc1Sc1ccc2c(/C=C/c3ccccn3)n[nH]c2c1,% inhibition,,−11%
CC(NC(=O)c1ccccc1Sc1ccc2c(/C=C/c3ccccn3)n[nH]c2c1)c1ccccc1 (centres unmarked),% inhibition of the proliferation of HUVEC,[1],30%
same,% inhibition of the proliferation of HUVEC,[2],94%
Cc1ccccc1CNC(=O)c1ccccc1Sc1ccc2c(/C=C/c3ccccn3)n[nH]c2c1,% inhibition of the proliferation of HUVEC,[1],24%
same,% inhibition of the proliferation of HUVEC,[2],99%
O=C(Nc1cc(Cl)nc(Cl)c1)c1ccccc1Sc1ccc2c(/C=C/c3ccccn3)n[nH]c2c1,% inhibition,,0%
O=C(Nc1ccc2ncccc2c1)c1ccccc1Sc1ccc2c(/C=C/c3ccccn3)n[nH]c2c1,% inhibition,,1%
O=C(Nc1ccccc1)c1ccc2c(-c3nc4ccccc4[nH]3)n[nH]c2c1,% inhibition of the proliferation of HUVEC,[3],3%
same,% inhibition of the proliferation of HUVEC,[4],16%
same,% inhibition of the proliferation of HUVEC,[5],24%
NC(=O)C1CCCN(C(=O)c2ccc3c(-c4nc5ccccc5[nH]4)n[nH]c3c2)C1 (centres unmarked),% inhibition of the proliferation of HUVEC,[3],3%
same,% inhibition of the proliferation of HUVEC,[4],13%
same,% inhibition of the proliferation of HUVEC,[5],36%
CC(=O)NCCNC(=O)c1ccccc1Sc1ccc2c(/C=C/c3ccccn3)n[nH]c2c1,% inhibition of the proliferation of HUVEC,[1],15%
same,% inhibition of the proliferation of HUVEC,[2],27%
O=C(NC(CO)CC1CCCCC1)c1ccccc1Sc1ccc2c(C=Cc3ccccn3)n[nH]c2c1 (centres unmarked),% inhibition,,13%
CCCCC(CC)NC(=O)c1ccccc1Sc1ccc2c(/C=C/c3ccccn3)n[nH]c2c1 (centres unmarked),% inhibition of the proliferation of HUVEC,[1],31%
same,% inhibition of the proliferation of HUVEC,[2],30%
O=C(NCC1COc2ccccc2O1)c1ccccc1Sc1ccc2c(/C=C/c3ccccn3)n[nH]c2c1 (centres unmarked),% inhibition,,−13%
O=C(c1ccc2c(-c3nc4ccccc4[nH]3)n[nH]c2c1)N1CCCC(O)C1 (centres unmarked),% inhibition of the proliferation of HUVEC,[3],37%
same,% inhibition of the proliferation of HUVEC,[4],−5%
same,% inhibition of the proliferation of HUVEC,[5],20%
CCn1nccc1NC(=O)c1ccccc1Sc1ccc2c(/C=C/c3ccccn3)n[nH]c2c1,% inhibition of the proliferation of HUVEC,[1],26%
same,% inhibition of the proliferation of HUVEC,[2],2%
CSc1ccccc1NC(=O)c1ccccc1Sc1ccc2c(/C=C/c3ccccn3)n[nH]c2c1,% inhibition,,−10%
O=C(NCCN1CCOCC1)c1ccc2c(-c3nc4ccccc4[nH]3)n[nH]c2c1,% inhibition of the proliferation of HUVEC,[3],−1%
same,% inhibition of the proliferation of HUVEC,[4],15%
same,% inhibition of the proliferation of HUVEC,[5],30%
CC1CCC(NC(=O)c2ccccc2Sc2ccc3c(/C=C/c4ccccn4)n[nH]c3c2)CC1 (centres unmarked),% inhibition of the proliferation of HUVEC,[1],−11%
same,% inhibition of the proliferation of HUVEC,[2],42%
O=C(Nc1cccc(-c2ccccc2)c1)c1ccccc1Sc1ccc2c(/C=C/c3ccccn3)n[nH]c2c1,% inhibition,,−13%
CCC(C)C(NC(=O)c1ccccc1Sc1ccc2c(C=Cc3ccccn3)n[nH]c2c1)C(=O)NO (centres unmarked),% inhibition,,9%
Cc1ccc(NC(=O)c2ccccc2Sc2ccc3c(/C=C/c4ccccn4)n[nH]c3c2)cc1O,% inhibition,,6%
O=C(NC1CCCCC1)c1ccc2c(-c3nc4ccccc4[nH]3)n[nH]c2c1,% inhibition of the proliferation of HUVEC,[3],3%
same,% inhibition of the proliferation of HUVEC,[4],−3%
same,% inhibition of the proliferation of HUVEC,[5],46%
Cn1nc(C2CC2)cc1NC(=O)c1ccccc1Sc1ccc2c(/C=C/c3ccccn3)n[nH]c2c1,% inhibition,,−47%
COc1cccc(OC)c1CNC(=O)c1ccccc1Sc1ccc2c(/C=C/c3ccccn3)n[nH]c2c1,% inhibition,,−10%
Cc1nnc(NC(=O)c2ccccc2Sc2ccc3c(/C=C/c4ccccn4)n[nH]c3c2)s1,% inhibition,,−20%
O=C(Nc1ccc2c(c1)OCCO2)c1ccccc1Sc1ccc2c(/C=C/c3ccccn3)n[nH]c2c1,% inhibition,,−1%
O=C(NCc1cccc(F)c1)c1ccccc1Sc1ccc2c(/C=C/c3ccccn3)n[nH]c2c1 [drawing 797],% inhibition of the proliferation of HUVEC,[1],81%
same,% inhibition of the proliferation of HUVEC,[2],95%
O=C(NC(CO)(CO)CO)c1ccccc1Sc1ccc2c(/C=C/c3ccccn3)n[nH]c2c1,% inhibition,,14%
COc1cc(CNC(=O)c2ccccc2Sc2ccc3c(/C=C/c4ccccn4)n[nH]c3c2)cc(OC)c1,% inhibition,,37%
CCSCCNC(=O)c1ccccc1Sc1ccc2c(/C=C/c3ccccn3)n[nH]c2c1,% inhibition,,7%
Cc1ccc(NC(=O)c2ccccc2Sc2ccc3c(/C=C/c4ccccn4)n[nH]c3c2)c(C)c1,% inhibition,,13%
CCCCOc1ccc(NC(=O)c2ccccc2Sc2ccc3c(/C=C/c4ccccn4)n[nH]c3c2)cc1,% inhibition,,−6%
O=C(NO)c1ccccc1Sc1ccc2c(/C=C/c3ccccn3)n[nH]c2c1,% inhibition of the proliferation of HUVEC,[1],7%
same,% inhibition of the proliferation of HUVEC,[2],25%
O=C(Nc1ccc2c(c1)C(=O)NC2=O)c1ccccc1Sc1ccc2c(/C=C/c3ccccn3)n[nH]c2c1,% inhibition,,−31%
O=C(NCC(F)(F)F)c1ccccc1Sc1ccc2c(/C=C/c3ccccn3)n[nH]c2c1 [drawing 626],% inhibition of the proliferation of HUVEC,[1],34%
same,% inhibition of the proliferation of HUVEC,[2],61%
Cc1cccc(CNC(=O)c2ccccc2Sc2ccc3c(/C=C/c4ccccn4)n[nH]c3c2)c1C,% inhibition,,13%
C=C(C)c1ccccc1NC(=O)c1ccccc1Sc1ccc2c(/C=C/c3ccccn3)n[nH]c2c1,% inhibition,,−41%
CCC(C)c1ccc(NC(=O)c2ccccc2Sc2ccc3c(/C=C/c4ccccn4)n[nH]c3c2)cc1 (centres unmarked),% inhibition,,81%
CC(C)(C)NC(=O)c1ccccc1Sc1ccc2c(/C=C/c3ccccn3)n[nH]c2c1,% inhibition,,23%
